Laboratory results published in PubChem BioAssay AID1963848 (Molecular Pharmacology Branch, DTP, NCI, 2024).

System: 379773-124-R-J2-PDC spheroid viability
Assay: Anticancer human tumor 379773-124-R-J2-PDC patient-derived endometrial carcinoma cell line growth inhibition [POLQ]
Conditions: spheroids with HUVEC and MSC; for IC50: curve of first compound; for viability, T/C: stronger effect = lower value
How it was run: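 Growth inhibition in 3D: complex spheroids (tumor PDC, HUVEC, MSC) treated with POLQ inhibitor combinations; where Cmax unknown, highest tested concentration 10 microM, except SN-38 at 1 microM.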
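Also: spheroids exposed to drugs for seven days before readout.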
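For viability, T/C in this document: percent viability relative to DMSO vehicle control taken as 100%.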

CC(=O)O[C@H]1C(=O)[C@@]2(C)[C@H]([C@H](OC(=O)c3ccccc3)[C@]3(O)C[C@H](OC(=O)[C@H](O)[C@@H](NC(=O)c4ccccc4)c4ccccc4)C(C)=C1C3(C)C)[C@]1(OC(C)=O)CO[C@@H]1C[C@@H]2O + Cc1cccc(N(C)C(=O)C2C(O)CCN2c2nc(C)cc(C(F)(F)F)c2C#N)c1
IC50 (second compound 0.0316 µM): < 0.00949 µM
IC50 (second compound 0.1 µM): < 0.00949 µM
IC50 (second compound 0.316 µM): < 0.00949 µM
IC50 (second compound 1 µM): < 0.00949 µM
IC50 (second compound 3.16 µM): < 0.00949 µM
IC50 (second compound 10 µM): < 0.00949 µM
viability, T/C (second compound 0.0316 µM, first compound 0.00949 µM): 24.4%
viability, T/C (second compound 0.0316 µM, first compound 0.03 µM): 11.6%
viability, T/C (second compound 0.0316 µM, first compound 0.0949 µM): 7.9%
viability, T/C (second compound 0.0316 µM, first compound 0.3 µM): 12.8%
viability, T/C (second compound 0.0316 µM, first compound 0.949 µM): 13.3%
viability, T/C (second compound 0.0316 µM, first compound 3 µM): 10.6%
viability, T/C (second compound 0.1 µM, first compound 0.00949 µM): 25.5%
viability, T/C (second compound 0.1 µM, first compound 0.03 µM): 8.1%
viability, T/C (second compound 0.1 µM, first compound 0.0949 µM): 9.59%
viability, T/C (second compound 0.1 µM, first compound 0.3 µM): 9.63%
viability, T/C (second compound 0.1 µM, first compound 0.949 µM): 10.5%
viability, T/C (second compound 0.1 µM, first compound 3 µM): 7.41%
viability, T/C (second compound 0.316 µM, first compound 0.00949 µM): 27.3%
viability, T/C (second compound 0.316 µM, first compound 0.03 µM): 9.48%
viability, T/C (second compound 0.316 µM, first compound 0.0949 µM): 11.7%
viability, T/C (second compound 0.316 µM, first compound 0.3 µM): 9.83%
viability, T/C (second compound 0.316 µM, first compound 0.949 µM): 10.2%
viability, T/C (second compound 0.316 µM, first compound 3 µM): 9.11%
viability, T/C (second compound 1 µM, first compound 0.00949 µM): 23.7%
viability, T/C (second compound 1 µM, first compound 0.03 µM): 13.9%
viability, T/C (second compound 1 µM, first compound 0.0949 µM): 11.9%
viability, T/C (second compound 1 µM, first compound 0.3 µM): 10.7%
viability, T/C (second compound 1 µM, first compound 0.949 µM): 10.9%
viability, T/C (second compound 1 µM, first compound 3 µM): 7.53%
viability, T/C (second compound 3.16 µM, first compound 0.00949 µM): 15.8%
viability, T/C (second compound 3.16 µM, first compound 0.03 µM): 8.23%
viability, T/C (second compound 3.16 µM, first compound 0.0949 µM): 10.8%
viability, T/C (second compound 3.16 µM, first compound 0.3 µM): 11.8%
viability, T/C (second compound 3.16 µM, first compound 0.949 µM): 10.8%
viability, T/C (second compound 3.16 µM, first compound 3 µM): 12%
viability, T/C (second compound 10 µM, first compound 0.00949 µM): 16.4%
viability, T/C (second compound 10 µM, first compound 0.03 µM): 10.1%
viability, T/C (second compound 10 µM, first compound 0.0949 µM): 9.57%
viability, T/C (second compound 10 µM, first compound 0.3 µM): 10.7%
viability, T/C (second compound 10 µM, first compound 0.949 µM): 10.5%
viability, T/C (second compound 10 µM, first compound 3 µM): 7.56%

CCCS(=O)(=O)Nc1ccc(F)c(C(=O)c2c[nH]c3ncc(-c4ccc(Cl)cc4)cc23)c1F + Cc1cccc(N(C)C(=O)C2C(O)CCN2c2nc(C)cc(C(F)(F)F)c2C#N)c1
IC50 (second compound 0.0316 µM): > 10 µM
IC50 (second compound 0.1 µM): > 10 µM
IC50 (second compound 0.316 µM): > 10 µM
IC50 (second compound 1 µM): > 10 µM
IC50 (second compound 3.16 µM): > 10 µM
IC50 (second compound 10 µM): > 10 µM
viability, T/C (second compound 0.0316 µM, first compound 0.0316 µM): 88.6%
viability, T/C (second compound 0.0316 µM, first compound 0.1 µM): 102%
viability, T/C (second compound 0.0316 µM, first compound 0.316 µM): 90.9%
viability, T/C (second compound 0.0316 µM, first compound 1 µM): 99.4%
viability, T/C (second compound 0.0316 µM, first compound 3.16 µM): 82.1%
viability, T/C (second compound 0.0316 µM, first compound 10 µM): 62.3%
viability, T/C (second compound 0.1 µM, first compound 0.0316 µM): 101%
viability, T/C (second compound 0.1 µM, first compound 0.1 µM): 89.5%
viability, T/C (second compound 0.1 µM, first compound 0.316 µM): 95.2%
viability, T/C (second compound 0.1 µM, first compound 1 µM): 87.4%
viability, T/C (second compound 0.1 µM, first compound 3.16 µM): 86.6%
viability, T/C (second compound 0.1 µM, first compound 10 µM): 58.7%
viability, T/C (second compound 0.316 µM, first compound 0.0316 µM): 97.4%
viability, T/C (second compound 0.316 µM, first compound 0.1 µM): 98.5%
viability, T/C (second compound 0.316 µM, first compound 0.316 µM): 94.9%
viability, T/C (second compound 0.316 µM, first compound 1 µM): 87.1%
viability, T/C (second compound 0.316 µM, first compound 3.16 µM): 78.5%
viability, T/C (second compound 0.316 µM, first compound 10 µM): 60.1%
viability, T/C (second compound 1 µM, first compound 0.0316 µM): 98.9%
viability, T/C (second compound 1 µM, first compound 0.1 µM): 88.7%
viability, T/C (second compound 1 µM, first compound 0.316 µM): 85.2%
viability, T/C (second compound 1 µM, first compound 1 µM): 86.5%
viability, T/C (second compound 1 µM, first compound 3.16 µM): 80.3%
viability, T/C (second compound 1 µM, first compound 10 µM): 64.3%
viability, T/C (second compound 3.16 µM, first compound 0.0316 µM): 92%
viability, T/C (second compound 3.16 µM, first compound 0.1 µM): 90.4%
viability, T/C (second compound 3.16 µM, first compound 0.316 µM): 85.7%
viability, T/C (second compound 3.16 µM, first compound 1 µM): 85.3%
viability, T/C (second compound 3.16 µM, first compound 3.16 µM): 73.8%
viability, T/C (second compound 3.16 µM, first compound 10 µM): 63%
viability, T/C (second compound 10 µM, first compound 0.0316 µM): 89.9%
viability, T/C (second compound 10 µM, first compound 0.1 µM): 92.1%
viability, T/C (second compound 10 µM, first compound 0.316 µM): 87.7%
viability, T/C (second compound 10 µM, first compound 1 µM): 83.9%
viability, T/C (second compound 10 µM, first compound 3.16 µM): 77.8%
viability, T/C (second compound 10 µM, first compound 10 µM): 53.9%
